According to patent EP0514133A1, “Benzodiazepine derivatives, compositions containing them and their use in therapy” (priority 1991, dated 1992):
Read-outs that look alike come from different tables or passages of the source.

Assays:
[1] = target: T1, CCK receptor (pancreas) (Rattus norvegicus, UniProt P30551); assay: biochemical; type: binding; settings: rat pancreas membranes; for IC50: 50 pM 125I-CCK-8, 25°C 2 hours
T1 construct: The whole pancreas was dissected free of fat tissue and was homogenized; from tissue; host or cells: rat pancreas membrane homogenate
T1 sequence (P30551 1-444): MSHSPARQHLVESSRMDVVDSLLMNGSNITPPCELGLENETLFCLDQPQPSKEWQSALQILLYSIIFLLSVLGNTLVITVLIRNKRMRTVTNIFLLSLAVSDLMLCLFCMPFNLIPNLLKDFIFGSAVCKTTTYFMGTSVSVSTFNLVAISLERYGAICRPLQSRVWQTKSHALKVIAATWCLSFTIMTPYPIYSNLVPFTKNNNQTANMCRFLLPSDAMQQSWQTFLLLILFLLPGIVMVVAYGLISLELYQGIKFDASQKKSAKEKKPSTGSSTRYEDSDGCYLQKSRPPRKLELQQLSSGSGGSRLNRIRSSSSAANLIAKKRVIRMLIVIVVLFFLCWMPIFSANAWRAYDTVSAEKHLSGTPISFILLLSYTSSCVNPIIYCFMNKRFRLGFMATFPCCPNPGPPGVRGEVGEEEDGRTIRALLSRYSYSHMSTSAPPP
Protocol: CCK-8 sulphated was radiolabelled with ¹²⁵I-Bolton Hunter reagent (2000 Ci/mmole). Receptor binding was performed according to Chang and Lotti (Proc. Natl. Acad. Sci. 83, 4923-4926, 1986) with minor modifications.
Male Sprague-Dawley rats (150-200g) were sacrificed by decapitation. The whole pancreas was dissected free of fat tissue and was homogenized in 25 volumes of ice-cold 10 mM N-2-hydroxyethyl-piperazine-N′-2-ethane sulphonic acid (HEPES) buffer with 0.1% soya bean trypsin inhibitor (pH 7.4 at 25°C) with a Kinematica Polytron. The homogenates were centrifuged at 47,800 g for 10 min. Pellets were resuspended in 10 volumes of binding assay buffer (20mM (HEPES)), 1mM ethylene glycol-bis-(β-aminoethylether-N,N′-tetraacetic acid) (EGTA), 5mM MgCl₂, 150 mM NaCl, bacitracin 0.25 mg/ml, soya bean trypsin inhibitor 0.1 mg/ml, and bovine serum albumin 2 mg/ml pH 6.5 at 25°C) using a Teflon (trademark) homogenizer, 15 strokes at 500 rpm. The homogenate was further diluted in binding assay buffer to give a final concentration of 0.5 mg original wet weight/1 ml buffer. […] All assays were run in duplicate. The reaction mixtures were incubated at 25°C for 2 hours and the reaction terminated by rapid filtration (Brandell 24 well cell harvester) over Whatman GF/C filters, washing 3 x 4 mls with ice-cold 100 Mm NaCl. The radioactivity on the filters was counted with a LKB gamma counter.
(§1) Drug displacement studies were performed with at least 10 concentrations of compounds of Formula I and the IC₅₀ values were determined by regression analysis IC₅₀ refers to the concentration of the compound required to inhibit 50% of specific binding of ¹²⁵I-CCK-8.

[2] = target: T2, CCK receptor (brain, cortex) (Cavia porcellus, UniProt H0VZC5); assay: biochemical; type: binding, guinea pig
T2 construct: the cortex was removed and homogenized in 25 mL ice-cold 0.32 M sucrose; from tissue; host or cells: guinea pig brain cortex P2 membrane pellet
T2 sequence (H0VZC5 1-426): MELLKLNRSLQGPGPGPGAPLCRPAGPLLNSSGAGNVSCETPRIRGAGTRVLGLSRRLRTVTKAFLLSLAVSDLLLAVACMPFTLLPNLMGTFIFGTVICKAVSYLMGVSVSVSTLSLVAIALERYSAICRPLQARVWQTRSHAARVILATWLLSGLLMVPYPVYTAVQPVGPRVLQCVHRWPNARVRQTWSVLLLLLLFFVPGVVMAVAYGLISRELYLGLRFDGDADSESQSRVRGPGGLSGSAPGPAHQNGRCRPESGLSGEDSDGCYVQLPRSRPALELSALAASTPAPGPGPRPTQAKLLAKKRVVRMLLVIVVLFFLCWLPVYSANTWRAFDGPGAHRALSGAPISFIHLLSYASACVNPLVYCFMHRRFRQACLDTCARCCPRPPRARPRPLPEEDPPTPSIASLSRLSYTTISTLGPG
Protocol: CCK-8 sulphated was radiolabelled and the binding was performed according to the description for the pancreas method with minor modifications.
Male Hartley guinea pigs (300-500g) were sacrificed by decapitation and the cortex was removed and homogenized in 25 mL ice-cold 0.32 M sucrose. The homogenates were centrifuged at 1000 g for 10 minutes and the resulting supernatant was recentrifuged at 20,000 g for 20 minutes. The P₂ pellet was resuspended in binding assay buffer (20mM HEPES, 5 mM MgCl₂, 0.25 mg/ml bacitracin, 1 mM EGTA pH 6.5 at 25°C), using a Teflon (trademark) homogenizer (5 strokes at 500 rpm) to give a final concentration of 10 mg original wet weight/1.2 ml buffer. […] All assays were run in duplicate. The reaction mixtures were incubated at 25°C for 2 hours and then the reaction was terminated by rapid filtration (Brandell 24 well cell harvester) on Whatman GF/C filters with 3 x 5 ml washes of cold 100 mM NaCl. The radioactivity on the filters was counted with a LKB gamma counter.
as §1

[3] = target: T3, Gastrin Receptor (Cavia porcellus, UniProt H0VZC5); assay: Gastrin Receptor Binding in Guinea Pig Gastric Glands, 125I-gastrin; design: from tissue; host or cells: isolated guinea pig gastric mucosal glands; settings: 0.1 nM 125I-gastrin, 25°C 30 minutes
T3 sequence (H0VZC5 1-426): T2 sequence (H0VZC5 1-426)
Protocol: Gastrin antagonist activity of compounds of Formula I was determined using the following assay.
Guinea pig gastric mucosal glands were prepared by the procedure of Chang et. al., Science, 230, 177-179 (1985) with slight modifications. […] The tissues were passed twice through a 5 ml syringe to liberate the gastric glands, and then filtered through Nitex (trademark) #202 gauge nylon mesh. The filtered glands were centrifuged at 272 g for 5 minutes and washed twice by resuspension in 25 ml buffer and centrifugation.
The washed guinea pig gastric glands prepared as above were resuspended in 25 ml of standard buffer. For binding studies, to 250 µl of gastric glands, 30 µl of buffer (for total binding) or gastrin (3 µM final concentration, for nonspecific binding) or test compound and 20 µl of ¹²⁵I-gastrin (NEN, 2200 Ci/mmole, 0.1 nM final concentration) were added. All assays were run in triplicate. […] The reaction mixtures, after incubation at 25°C for 30 minutes in a shaking water bath were rapidly filtered (Brandell 24 well cell harvester) over Whatman G/F B filters presoaked in assay buffer and immediately washed further with 3 x 4 ml of 100 mM ice cold NaCl. The radioactivity on the filters was measured using a LKB gamma counter.

[4] = guinea pig cortex membranes, 50 pM 125I-CCK-8, 25°C 2 hours, read-out: IC50 ^125I-CCK Brain

Molecule | IC50 [1] | IC50 [2, 4] | IC50 [3] | inhibition at 3 µM ([1]; at 3μM, read-out: inhibition of ^125I-CCK binding, Pancreas) | IC50 [2]
CN1C(=O)C(NC(=O)Nc2cccc(S(=O)(=O)NC(=O)C(F)(F)F)c2)N=C(C2CCCCC2)c2ccccc21 (racemic) [Example 17, N-[3(R,S)-5-Cyclohexyl-2,3-dihydro-1-methyl-2-oxo-1H-1,4-benzodiazepin-3-yl] N′-[3-(trifluoromethylcarbonylaminosulphonyl)phenyl] urea] | 137 nM | 0.9 nM | 10.5 nM | – | –
CCN1C(=O)C(NC(=O)Nc2cccc(S(=O)(=O)NC(C)=O)c2)N=C(C2CCCC2)c2ccccc21 (racemic) [Example 20, N-[3(R,S)-5-Cyclopentyl-2,3-dihydro-1-ethyl-2-oxo-1H-1,4-benzodiazepin-3-yl] N′-[3-(methylcarbonylaminosulphonyl)phenyl] urea] | 953 nM | 1.4 nM | 1.77 nM | – | –
CN1C(=O)[C@H](NC(=O)Nc2cccc(C(=O)NS(=O)(=O)c3ccccc3)c2)N=C(C2CCCCC2)c2ccccc21 [Example 27, (-)-N-[3(R)-5-Cyclohexyl-2,3-dihydro-1-methyl-2-oxo-1H-1,4-benzodiazepin-3-yl] N′-[3-(phenylsulphonylaminocarbonyl)phenyl]urea] | – | – | 1.34 nM | 19% | 0.38 nM
CN1C(=O)C(NC(=O)Nc2cccc(-c3nn[nH]n3)c2)N=C(C2CCCCC2)c2ccccc21 (racemic) [Example 4, N-[3(R,S)-5-Cyclohexyl-2,3-dihydro-1-methyl-2-oxo-1H-1,4-benzodiazepin-3-yl] N′-[3-tetrazol-5-ylphenyl]urea] | 11 nM | 0.09 nM | 0.44 nM | – | –
CC(=O)NS(=O)(=O)c1cccc(NC(=O)NC2N=C(C3CCCCC3)c3ccccc3N(C)C2=O)c1 (racemic) [Example 15, N-[3(R,S)-5-Cyclohexyl-2,3-dihydro-1-methyl-2-oxo-1H-1,4-benzodiazepin-3-yl] N′-[3-(methylcarbonylaminosulphonyl)phenyl] urea] | 19.8 nM | – | 1.06 nM | – | 0.4 nM
N-(3(R,S)-5-Cyclopentyl-2,3-dihydro-1-methyl-2-oxo-1H-1,4-benzodiazepin-3-yl] N′-[3-(1,1-dimethylethylsulphonylaminocarbonyl)phenyl] urea [Example 39] | 270 nM | 0.56 nM | 1.18 nM | – | –
